From PubChem BioAssay (NCI)
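48-hour exposure; five concentrations; linearly interpolated endpoints. GI50 is the concentration that inhibits growth by half. TGI: total growth inhibition.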

What was measured:
Test in all cases: inhibition of tumour cell growth, NCI panel, 48 h
NCI-H460 lung = test system: NCI-H460 lung
SR leukemia = test system: SR leukemia
SNB-75 CNS = test system: SNB-75 CNS
IGROV1 ovarian = test system: IGROV1 ovarian
HS 578T breast = test system: HS 578T breast
SF-539 CNS = test system: SF-539 CNS
HCT-116 colon = test system: HCT-116 colon
T-47D breast = test system: T-47D breast
BT-549 breast = test system: BT-549 breast
SK-MEL-28 melanoma = test system: SK-MEL-28 melanoma

Structure (SMILES)	GI50 (NCI-H460 lung)	TGI (NCI-H460 lung)	GI50 (SR leukemia)	TGI (SR leukemia)	GI50 (SNB-75 CNS)	TGI (SNB-75 CNS)	GI50 (IGROV1 ovarian)	TGI (IGROV1 ovarian)	GI50 (HS 578T breast)	TGI (HS 578T breast)	GI50 (SF-539 CNS)	TGI (SF-539 CNS)	GI50 (HCT-116 colon)	TGI (HCT-116 colon)	GI50 (T-47D breast)	TGI (T-47D breast)	GI50 (BT-549 breast)	TGI (BT-549 breast)	GI50 (SK-MEL-28 melanoma)	TGI (SK-MEL-28 melanoma)
COc1ccc2sc3cccc(NCCN(C)C)c3c(=O)c2c1	2570 nM	6220 nM	2290 nM	5860 nM	2900 nM	12800 nM	3350 nM	11600 nM	2830 nM	13100 nM	3520 nM	13300 nM	2780 nM	9690 nM	2760 nM	9780 nM	5400 nM	18600 nM	2260 nM	5300 nM
COC(=O)[C@@H](C)C[C@H](Cc1cn(C)c2ccccc12)NC(=O)c1csc([C@@H](C[C@H](C(C)C)N(C)C(=O)[C@@H](NC(=O)[C@H]2CCCCN2C)C(C)C)OC(C)=O)n1	10.1 nM	> 6110 nM	2.98 nM	> 16700 nM	8.87 nM	> 14000 nM	28.9 nM	> 16700 nM	10.5 nM	7580 nM	17.3 nM	116 nM	7.07 nM	> 16700 nM	> 16700 nM	> 16700 nM	< 11.3 nM	490 nM	> 4360 nM	> 16700 nM
CCOC(=O)c1ccccc1OC(=O)NNc1ccccc1	442 nM	> 100000 nM	1470 nM	> 100000 nM	> 60400 nM	> 100000 nM	33900 nM	> 100000 nM	> 31900 nM	> 100000 nM	312 nM	1330 nM	1690 nM	> 100000 nM	892 nM	> 100000 nM	3560 nM	> 100000 nM	> 59600 nM	> 100000 nM
CCN(CC)CCNc1ccc(C)c2sc3cc(Cl)ccc3c(=O)c12	1870 nM	3540 nM	1600 nM	3570 nM	1710 nM	4980 nM	1830 nM	4050 nM	1650 nM	3900 nM	1600 nM	3000 nM	1650 nM	3150 nM	1650 nM	4020 nM	2360 nM	6950 nM	1910 nM	3520 nM
NS(=O)(=O)OCC1OC(n2cnc3cncnc32)C(O)C1O (stereo not given)	24 nM	76.2 nM	15.3 nM	21600 nM	30.9 nM	400 nM	54.1 nM	304 nM	59.2 nM	932 nM	20.6 nM	46.7 nM	15.7 nM	33 nM	< 13.4 nM	66.5 nM	27.5 nM	91.3 nM	39 nM	185 nM
CC12OOC(c3ccccc31)c1c2ccc2ccccc12 (stereo not given)		5480 nM		3240 nM		22500 nM		3670 nM		78700 nM		22300 nM		3210 nM		3840 nM		22300 nM		27000 nM
